System: T1, RsD2HGDH
T1 construct: gene D2HGDH
Type: biochemical, Ralstonia solanacearum
Details: free enzyme; 100 µM DCIP, 200 µM PMS, 50 mM PB pH 7.0 (assay of b15), 25 °C

## O=C(O)CC[C@@H](O)C(=O)O [D2HG]
  Km: 433 µM

From publication PMC8869338 (Biosensors, 2022)
